The results in this text go back to patent US7186743B2, “Substituted pyrazolyl compounds for the treatment of inflammation” (Pharmacia Corporation, priority 2001, dated 2007).

Where a name gives a salt, the structure may show the parent alone. Read-outs that look alike come from different tables or passages of the source.

The target of this experiment is T1, IKK2 (Homo sapiens, UniProt O14920).
T1 construct: made in house; host or cells: insect cells (baculovirus, pFastBac; SF9)
T1 sequence (O14920 1-756): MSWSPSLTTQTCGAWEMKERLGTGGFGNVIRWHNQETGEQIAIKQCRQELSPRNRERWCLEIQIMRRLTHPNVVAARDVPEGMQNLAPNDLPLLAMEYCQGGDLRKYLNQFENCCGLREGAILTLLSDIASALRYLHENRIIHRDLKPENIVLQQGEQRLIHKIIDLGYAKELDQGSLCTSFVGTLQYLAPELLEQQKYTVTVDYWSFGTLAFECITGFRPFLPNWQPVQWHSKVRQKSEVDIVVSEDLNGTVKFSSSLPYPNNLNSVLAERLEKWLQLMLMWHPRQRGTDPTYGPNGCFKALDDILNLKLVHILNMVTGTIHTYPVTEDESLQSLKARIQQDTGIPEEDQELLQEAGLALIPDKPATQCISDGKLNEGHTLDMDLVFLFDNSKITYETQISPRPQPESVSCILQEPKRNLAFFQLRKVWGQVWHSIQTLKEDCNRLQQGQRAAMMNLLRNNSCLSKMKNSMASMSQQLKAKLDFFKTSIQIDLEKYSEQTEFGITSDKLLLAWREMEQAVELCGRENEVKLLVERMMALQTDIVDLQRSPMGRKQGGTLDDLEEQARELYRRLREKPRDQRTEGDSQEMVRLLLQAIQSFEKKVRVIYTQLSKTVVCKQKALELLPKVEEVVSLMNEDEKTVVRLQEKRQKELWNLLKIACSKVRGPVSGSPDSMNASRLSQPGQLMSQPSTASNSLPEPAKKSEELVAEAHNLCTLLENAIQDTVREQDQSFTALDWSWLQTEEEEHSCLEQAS
Briefly: IKKβ Resin Enzyme Assay (IKK2 resin). Format: biochemical. An outline of the steps:
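Enzyme: human IKK2 with a C-terminal FLAG tag, baculovirus-expressed, purified as homodimer on anti-FLAG resin. It phosphorylates a biotinylated IκBα peptide with 1 μM ATP plus [γ-33P]ATP in 25 mM Hepes pH 7.6, Mg/Mn, for 30 min at 25° C. Incorporation is counted by scintillation after anion-exchange resin stop.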

The mark [1] stands for this setting: Table 2, read-out: IKK Resin IC50.
Where [2] appears, read: Table 3, read-out: IKK Resin IC50.
[3] abbreviates: Table 4, read-out: IKK2 Resin IC50.
[4] abbreviates: Table 7, read-out: IKK2 Resin IC50.

Consider `Cc1ccccc1C(=O)Nc1ccc2c(c1)-c1c(c(C(N)=O)nn1-c1ccc(S(C)(=O)=O)cc1)CC2` [Example 94, 8-[(2-methylbenzoyl)amino]-1-[4-(methylsulfonyl)phenyl]-4,5-dihydro-1H-benzo[g]indazole-3-carboxamide], for which, under setting [1], the IC50 is not above 1 µM.

On to `CS(=O)(=O)c1ccc(-n2nc(C(N)=O)c3c2-c2cc(NC(=O)c4cc(Cl)cnc4Cl)ccc2CC3)cc1` [Example 123, 8-{[(2,5-dichloropyridin-3-yl)carbonyl]amino}-1-[4-(methylsulfonyl)phenyl]-4,5-dihydro-1H-benzo[g]indazole-3-carboxamide], for which, under setting [1], the IC50 is not above 1 µM.

Consider `COc1ccc(C(=O)Nc2ccc3c(c2)-c2c(c(C(N)=O)nn2-c2ccc(S(C)(=O)=O)cc2)CC3)cc1` [Example 143, 8-[(4-methoxybenzoyl)amino]-1-[4-(methylsulfonyl)phenyl]-4,5-dihydro-1H-benzo[g]indazole-3-carboxamide], for which, under setting [2], the IC50 was not above 1 µM.

For `NC(=O)c1nn(-c2cccs2)c2c1CCc1ccc(NC(=O)c3ccncc3Cl)cc1-2` [Example 382, 8-[(3-chloroisonicotinoyl)amino]-1-thien-2-yl-4,5-dihydro-1H-benzo[g]indazole-3-carboxamide], for the setting “Table for Examples 381-385 (headed TABLE 14), read-out: IKK2 Resin IC50”, the IC50 is not above 1 µM.

As for `CS(=O)(=O)c1ccc(-n2nc(C(N)=O)c3c2-c2cc(NC(=O)c4cc(N)ccc4Cl)ccc2CC3)cc1` [Example 112, 8-[(5-amino-2-chlorobenzoyl)amino]-1-[4-(methylsulfonyl)phenyl]-4,5-dihydro-1H-benzo[g]indazole-3-carboxamidehydrochloride], the IC50 under setting [1] is not above 1 µM.

For `CC(=O)Nc1ccc(-n2nc(C(N)=O)c3c2-c2cc(NC(=O)c4ccccc4Cl)ccc2CC3)cc1` [Example 371, 1-[4-(acetylamino)phenyl]-8-[(2-chlorobenzoyl)amino]-4,5-dihydro-1H-benzo[g]indazole-3-carboxamide], the IC50 (Table 15, read-out: IKK2 Resin IC50) is not above 1 µM.

Take `CS(=O)(=O)c1ccc(-n2nc(C(N)=O)c3c2-c2cc(NC(=O)c4cc(Br)ccc4Cl)ccc2CC3)cc1` [Example 136, 8-[(5-bromo-2-chlorobenzoyl)amino]-1-[4-(methylsulfonyl)phenyl]-4,5-dihydro-1H-benzo[g]indazole-3-carboxamide]: the IC50 under setting [2] was not above 1 µM.

Consider `Cc1c(O)cccc1C(=O)Nc1ccc2c(c1)-c1c(c(C(N)=O)nn1-c1ccc(F)cc1)CC2` [Example 231, 1-(4-fluorophenyl)-8-[(3-hydroxy-2-methylbenzoyl)amino]-4,5-dihydro-1H-benzo[g]indazole-3-carboxamide], for which the IC50 (Table 6, read-out: IKK2 Resin IC 50) was not above 1 µM.

As for `Cc1ncccc1C(=O)Nc1ccc2c(c1)-c1c(c(C(N)=O)nn1-c1ccc(S(C)(=O)=O)cc1)CC2` [Example 100], under setting [1], the IC50 is not above 1 µM.

`COc1ccc(C(=O)Nc2ccc3c(c2)-c2c(c(C(N)=O)nn2-c2ccc4c(c2)OCO4)CC3)c(Cl)c1` [Example 182, 1-(1,3-benzodioxol-5-yl)-8-[(2-chloro-4-methoxybenzoyl)amino]-4,5-dihydro-1H-benzo[g]indazole-3-carboxamide]: the IC50 under setting [3] is not above 1 µM.

`COc1cc(Cl)c(C(=O)Nc2ccc3c(c2)-c2c(c(C(N)=O)nn2-c2ccc(S(C)(=O)=O)cc2)CC3)cc1OC` [Example 131, 8-[(2-chloro-4,5-dimethoxybenzoyl)amino]-1-[4-(methylsulfonyl)phenyl]-4,5-dihydro-1H-benzo[g]indazole-3-carboxamide]: the IC50 under setting [2] was not above 1 µM.

On to `CSc1ccc(Cl)c(C(=O)Nc2ccc3c(c2)-c2c(c(C(N)=O)nn2-c2ccc4c(c2)OCO4)CC3)c1` [Example 190, 1-(1,3-benzodioxol-5-yl)-8-{2-chloro-5-[2-(methylthio)benzoyl]amino}-4,5-dihydro-1H-benzo[g]indazole-3-carboxamide], for which the IC50 under setting [3] was not above 1 µM.

In the case of `NC(=O)c1nn(-c2ccc3c(c2)OCO3)c2c1CCc1ccc(NC(=O)c3ccncc3Cl)cc1-2` [Example 170, 1-(1,3-benzodioxol-5-yl)-8-[(3-chloroisonicotinoyl)amino]-4,5-dihydro-1H-benzo[g]indazole-3-carboxamide], the IC50 under setting [3] is not above 1 µM.

As to `CS(=O)(=O)c1ccc(-n2nc(C(N)=O)c3c2-c2cc(NC(=O)c4cc([N+](=O)[O-])ccc4Cl)ccc2CC3)cc1` [Example 111, 8-[(2-chloro-5-nitrobenzoyl)amino]-1-[4-(methylsulfonyl)phenyl]-4,5-dihydro-1H-benzo[g]indazole-3-carboxamide], the IC50 under setting [1] is not above 1 µM.

For `CN(C)S(=O)(=O)c1ccc(-n2nc(C(N)=O)c3c2-c2cc(NS(C)(=O)=O)ccc2CC3)cc1` [Example 426, 1-{4-[(dimethylamino)sulfonyl]phenyl}-8-[(methylsulfonyl)amino]-4,5-dihydro-1H-benzo[g]indazole-3-carboxamide], the IC50 (Table 21, read-out: IKK2 Resin IC50) is not above 1 µM.

Regarding `CN1CCN(c2ccc(Cl)c(C(=O)Nc3ccc4c(c3)-c3c(c(C(N)=O)nn3-c3ccc(F)cc3)CC4)n2)CC1` [Example 256, 8-({[3-chloro-6-(4-methylpiperazin-1-yl)pyridin-2-yl]carbonyl}amino)-1-(4-fluorophenyl)-4,5-dihydro-1H-benzo[g]indazole-3-carboxamide], under setting [4], the IC50 is not above 1 µM.

`CSc1ccc(-n2nc(C(N)=O)c3c2-c2cc(NC(=O)c4cc5c(cc4Cl)OCO5)ccc2CC3)cc1` [Example 413, 8-{[(6-chloro-1,3-benzodioxol-5-yl)carbonyl]amino}-1-[4-(methylthio)phenyl]-4,5-dihydro-1H-benzo[g]indazole-3-carboxamide]: the IC50 (Table 19, read-out: IKK2 Resin IC50) was not above 1 µM.

Consider `CS(=O)(=O)c1ccc(-n2nc(C(N)=O)c3c2-c2cc(NC(=O)c4c(F)cccc4Cl)ccc2CC3)cc1` [Example 134, 8-[(2-chloro-6-fluorobenzoyl)amino]-1-[4-(methylsulfonyl)phenyl]-4,5-dihydro-1H-benzo[g]indazole-3-carboxamide], for which the IC50 under setting [2] is not above 1 µM.

Turning to `NC(=O)c1nn(-c2cccc(F)c2)c2c1CCc1ccc(NC(=O)c3ccccc3Cl)cc1-2` [Example 339, 8-[(2-chlorobenzoyl)amino]-1-(3-fluorophenyl)-4,5-dihydro-1H-benzo[g]indazole-3-carboxamide], where the note is “Table 14, read-out: IKK2 Resin IC50”, the IC50 is not above 1 µM.

With `CN1CCN(c2ccc(Cl)c(C(=O)Nc3ccc4c(c3)-c3c(c(C(N)=O)nn3-c3ccc(F)cc3)CC4)c2)CC1` [Example 258, 8-{[2-chloro-5-(4-methylpiperazin-1-yI)benzoyl]amino}-1-(4-fluorophenyl)-4,5-dihydro-1H-benzo[g]indazole-3-carboxamide], the IC50 under setting [4] was not above 1 µM.

Regarding `Cc1c(O)cccc1C(=O)Nc1ccc2c(c1)-c1c(c(C(N)=O)nn1-c1ccc3c(c1)OCO3)CC2` [Example 198, 1-(1,3-benzodioxol-5-yl)-8-[(3-hydroxy-2-methylbenzoyl)amino]-4,5-dihydro-1H-benzo[g]indazole-3-carboxamide], the IC50 under setting [3] was not above 1 µM.

On to `Cc1ccnc(Cl)c1C(=O)Nc1ccc2c(c1)-c1c(c(C(N)=O)nn1-c1cccc(O)c1)CC2` [Example 287, 8-{[(2-chloro-4-methylpyridin-3-yl)carbonyl]amino}-1-(3-hydroxyphenyl)-4,5-dihydro-1H-benzo[g]indazole-3-carboxamide], for which the IC50 (Table 10, read-out: IKK2 Resin IC50) was not above 1 µM.
